{"source": "paper PMC8161485", "about": "(ACS Central Science, 2021)", "system": "heme oxygenase 1 (HO-1)", "assay": "Induction of heme oxygenase 1 in primary AML specimens", "type": "cell-based, human", "conditions": "compared to vehicle-only control", "note": "Entries after “also recorded” stand apart in the source; their conditions may differ."}
{"smiles": "C=C1C(=O)O[C@H]2[C@H]1CC/C(C)=C/CC[C@@]1(C)O[C@@H]21", "note": "[PTL, parthenolide]", "values": [{"measurement": "induction of heme oxygenase 1 (HO-1)", "result": "Dose-dependent induction; also recorded: comparatively larger induction of HO-1 at lower doses"}]}
